According to patent publication EP3679037B1, “NEW 5-AMINOTETRAZOLE DERIVATIVES WITH ANTIBACTERIAL AND ANTIFUNGAL ACTIVITY” (Warszawski Uniwersytet Medyczny, priority 2017, dated 2019):
Converted amounts (≈) assume the structure as drawn. Where two headings read alike, the source gives them in different places.

Assays:
[1] = test system: lung cancer cell line (A549); experiment: Cytotoxicity (inhibition of cell proliferation), A549 cell line; assay type: cell-based; settings: Homo sapiens
Description: (§1) The obtained compounds were tested for potential cytotoxicity. They are not cytotoxic to the non-cancerous, immortalized human keratinocyte (HaCaT) cell line and the lung cancer cell line (A549).

[2] = test system: non-cancerous, immortalized human keratinocyte (HaCaT) cell line; experiment: Cytotoxicity (inhibition of cell proliferation), HaCaT cell line; assay type: cell-based
Description: as §1

[3] = target: S. aureus Topoisomerase IV (Staphylococcus aureus, UniProt P0C1S7+P0C1U9); experiment: Inhibition of bacterial topoisomerase IV; assay type: biochemical; settings: dose of inhibitor suppressing 50% activity
Source text: (§2) The mechanism of action was verified for the obtained compounds by inhibiting bacterial topoisomerases (Topoisomerase IV and Gyrase).

S. aureus DNA Gyrase = S. aureus DNA Gyrase (Staphylococcus aureus, UniProt P0A0K8+P20831); experiment: Inhibition of bacterial DNA gyrase; assay type: biochemical; settings: dose of inhibitor suppressing 50% activity
Source text: as §2

[4] = concentration at which cell proliferation is inhibited by 50% in relation to the control, read-out: IC50

S. aureus DNA Gyrase, sequence (P20831 whole entry): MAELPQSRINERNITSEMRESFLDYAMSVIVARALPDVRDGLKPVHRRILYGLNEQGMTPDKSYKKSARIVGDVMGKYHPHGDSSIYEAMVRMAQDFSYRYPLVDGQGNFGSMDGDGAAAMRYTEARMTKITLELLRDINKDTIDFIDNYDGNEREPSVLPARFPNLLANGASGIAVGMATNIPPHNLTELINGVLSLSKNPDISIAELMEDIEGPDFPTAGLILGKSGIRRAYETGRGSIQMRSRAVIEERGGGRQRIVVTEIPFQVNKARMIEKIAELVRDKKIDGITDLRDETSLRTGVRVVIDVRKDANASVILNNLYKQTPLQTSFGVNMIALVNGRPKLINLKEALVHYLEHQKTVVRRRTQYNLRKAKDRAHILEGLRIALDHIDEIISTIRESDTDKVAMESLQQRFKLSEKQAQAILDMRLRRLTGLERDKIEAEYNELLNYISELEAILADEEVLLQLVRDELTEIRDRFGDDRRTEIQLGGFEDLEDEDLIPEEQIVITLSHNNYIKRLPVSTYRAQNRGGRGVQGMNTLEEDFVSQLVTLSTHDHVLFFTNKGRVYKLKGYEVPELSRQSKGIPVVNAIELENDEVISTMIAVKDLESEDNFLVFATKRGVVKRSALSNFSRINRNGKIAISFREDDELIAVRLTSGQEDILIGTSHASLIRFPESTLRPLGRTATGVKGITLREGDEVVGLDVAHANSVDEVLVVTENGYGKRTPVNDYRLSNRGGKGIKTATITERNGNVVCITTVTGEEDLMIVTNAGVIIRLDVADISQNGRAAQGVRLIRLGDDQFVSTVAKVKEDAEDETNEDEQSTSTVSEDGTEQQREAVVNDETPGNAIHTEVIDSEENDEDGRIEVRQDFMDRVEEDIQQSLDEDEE
S. aureus DNA Gyrase, sequence (P0A0K8 whole entry): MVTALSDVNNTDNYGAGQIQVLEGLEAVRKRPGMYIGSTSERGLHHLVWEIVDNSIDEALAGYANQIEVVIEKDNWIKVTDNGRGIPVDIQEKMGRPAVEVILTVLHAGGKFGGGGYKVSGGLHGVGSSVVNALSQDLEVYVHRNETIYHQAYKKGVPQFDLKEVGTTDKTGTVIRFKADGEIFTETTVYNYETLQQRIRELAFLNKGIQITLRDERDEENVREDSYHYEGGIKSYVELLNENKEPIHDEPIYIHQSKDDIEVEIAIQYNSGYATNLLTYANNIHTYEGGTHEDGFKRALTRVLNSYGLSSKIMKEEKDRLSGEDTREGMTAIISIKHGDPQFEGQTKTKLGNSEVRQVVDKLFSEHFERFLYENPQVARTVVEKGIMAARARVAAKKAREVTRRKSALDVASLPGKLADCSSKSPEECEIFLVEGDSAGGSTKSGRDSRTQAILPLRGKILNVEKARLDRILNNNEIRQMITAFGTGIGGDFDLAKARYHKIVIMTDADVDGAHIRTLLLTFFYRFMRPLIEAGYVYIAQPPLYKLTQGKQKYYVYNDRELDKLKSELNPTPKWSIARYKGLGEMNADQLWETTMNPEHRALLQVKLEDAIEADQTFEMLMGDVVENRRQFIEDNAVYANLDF
S. aureus Topoisomerase IV, sequence (P0C1S7 whole entry): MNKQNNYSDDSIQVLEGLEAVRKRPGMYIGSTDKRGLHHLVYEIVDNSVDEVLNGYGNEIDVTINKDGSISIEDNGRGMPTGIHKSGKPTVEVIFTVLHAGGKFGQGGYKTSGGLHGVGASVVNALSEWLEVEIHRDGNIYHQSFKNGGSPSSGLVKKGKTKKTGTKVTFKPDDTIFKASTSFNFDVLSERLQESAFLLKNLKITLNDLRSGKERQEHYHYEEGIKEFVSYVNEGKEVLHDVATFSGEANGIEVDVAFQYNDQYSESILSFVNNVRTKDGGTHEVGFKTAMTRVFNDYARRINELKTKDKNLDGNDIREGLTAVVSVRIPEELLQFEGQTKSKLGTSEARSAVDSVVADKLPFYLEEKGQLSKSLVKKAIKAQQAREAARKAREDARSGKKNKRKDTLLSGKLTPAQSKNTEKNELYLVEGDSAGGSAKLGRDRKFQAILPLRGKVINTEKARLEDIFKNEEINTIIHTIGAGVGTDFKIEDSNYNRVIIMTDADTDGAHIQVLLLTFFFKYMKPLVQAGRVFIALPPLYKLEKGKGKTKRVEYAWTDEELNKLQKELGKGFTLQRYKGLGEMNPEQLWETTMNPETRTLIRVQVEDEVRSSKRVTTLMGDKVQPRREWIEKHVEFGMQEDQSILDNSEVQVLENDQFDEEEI
S. aureus Topoisomerase IV, sequence (P0C1U9 whole entry): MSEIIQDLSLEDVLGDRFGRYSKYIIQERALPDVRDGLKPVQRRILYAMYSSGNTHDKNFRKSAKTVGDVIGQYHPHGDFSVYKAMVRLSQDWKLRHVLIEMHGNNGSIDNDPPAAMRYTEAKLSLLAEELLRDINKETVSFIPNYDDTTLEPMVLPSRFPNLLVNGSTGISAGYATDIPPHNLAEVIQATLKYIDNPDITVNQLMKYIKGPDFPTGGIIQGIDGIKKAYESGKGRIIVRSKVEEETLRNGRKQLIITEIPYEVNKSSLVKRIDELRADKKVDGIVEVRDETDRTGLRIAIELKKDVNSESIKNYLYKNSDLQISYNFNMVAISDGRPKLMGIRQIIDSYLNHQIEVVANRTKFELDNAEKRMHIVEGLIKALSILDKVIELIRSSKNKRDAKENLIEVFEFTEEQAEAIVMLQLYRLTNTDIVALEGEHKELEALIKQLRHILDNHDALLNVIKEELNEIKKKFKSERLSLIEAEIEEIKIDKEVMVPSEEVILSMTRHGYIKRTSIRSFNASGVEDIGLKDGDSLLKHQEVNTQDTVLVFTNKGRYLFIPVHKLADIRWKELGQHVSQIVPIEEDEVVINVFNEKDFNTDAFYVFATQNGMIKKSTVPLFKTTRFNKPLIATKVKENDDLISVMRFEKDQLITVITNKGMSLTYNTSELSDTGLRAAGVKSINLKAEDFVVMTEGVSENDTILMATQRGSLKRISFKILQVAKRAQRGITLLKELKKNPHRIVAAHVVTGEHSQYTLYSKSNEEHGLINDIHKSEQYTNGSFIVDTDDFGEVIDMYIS

Structure (SMILES) | IC50 [1, 4] [µM] | IC50 [2, 4] [µM] | IC50 [1] [µM] | IC50 [2] [µM] | IC50 [3] [µM] | IC50 (S. aureus DNA Gyrase) [µM] | IC50 S. aureus DNA Gyrase (S. aureus DNA Gyrase) [µg/mL]
Fc1ccc(-n2nnnc2Nc2nccs2)cc1Cl [Compound 2, N-(1-(3-chloro-4-fluorophenyl)-1H-tetrazol-5-yl)thiazol-2-amine] | 60 | 60 | – | – | – | – | –
FC(F)(F)c1ccc(-n2nnnc2Nc2nccs2)cc1 [Compound 3, N-(1-(4-(trifluoromethyl)phenyl)-1H-tetrazol-5-yl)thiazole-2-amine] | 76 | 80 | – | – | – | – | –
Fc1ccc(-n2nnnc2Nn2cnnc2)cc1 [Compound 9, 1-(4-fluorophenyl)-N-(4H-1,2.4-triazol-4-yl)-1H-tetrazole-5-amine] | – | – | 80 | 84 | – | – | –
Clc1ccc(-n2nnnc2NCc2ccco2)cc1Cl [Compound 11, 1-(3,4-dichlorophenyl)-N-(furan-2-ylmethyl)-1H-tetrazole-5-amine] | 80 | 84 | – | – | 8.38 | 2.9 | –
Fc1ccc(-n2nnnc2Nn2cnnc2)cc1Cl [Compound 8, 1-(3-chloro-4-fluorophenyl)-N-(4H-1,2.4-triazol-4-yl)-1H-tetrazole-5-amine] | – | – | 60 | 62 | – | – | –
Cc1ccc(-n2nnnc2NCc2ccco2)cc1Cl [Compound 10, 1-(3-chloro-4-methylphenyl)-N-(furan-2-ylmethyl)-1H-tetrazole-5-amine] | 78 | 80 | – | – | 41.1 | – | 22.8 ± 0.4 (≈ 78.7 µM)
Brc1ccc(-n2nnnc2Nn2cnnc2)cc1 [Compound 5, 1-(4-bromophenyl)-N-(4H-1,2.4-triazol-4-yl)-1H-tetrazole-5-amine] | – | – | 62 | 65 | – | – | –
